Measured values reported in patent publication US9328112B2, “Tetracyclic CDK9 kinase inhibitors” (AbbVie Inc., priority 2014, dated 2016).

Assays:
H929 cells = test: Cell viability assay (Cell TiterGlo); type: cell-based; settings: Homo sapiens, NCI-H929, 24 hours at 37° C., Cell TiterGlo luminescence
Description: The cell viability assay was performed using H929 cells. Cells were seeded in 96-well plates at 10,000 cells/well and, after overnight incubation, treated with compounds in a dose response of 3-fold dilutions from 10 μM to 0.005 μM ([…], 0.1% final DMSO concentration). After 24 hours at 37° C., cell viability was measured using Cell TiterGlo reagent (Promega) with a luminescence reader.

CDK9/Cyclin T1 = CDK9/Cyclin T1 (Homo sapiens (Human), UniProt P50750); test: CDK9 enzyme assay (LANCE ULight TR-FRET kinase assay); type: biochemical; settings: 1000 μM ATP, 100 nM ULight MBP, kinase reaction 1 hour
Procedure, shortened: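 Human CDK9/Cyclin T1 phosphorylating 100 nM ULight-MBP with 1000 μM ATP in HEPES/MgCl2 buffer, 1 h reaction. Stopped with 20 mM EDTA plus 0.5 nM Eu anti-phospho-MBP antibody, incubated 1 h, read by TR-FRET (ex 320 nm, em 615/665 nm).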

Sequence of CDK9/Cyclin T1 (P50750 whole entry): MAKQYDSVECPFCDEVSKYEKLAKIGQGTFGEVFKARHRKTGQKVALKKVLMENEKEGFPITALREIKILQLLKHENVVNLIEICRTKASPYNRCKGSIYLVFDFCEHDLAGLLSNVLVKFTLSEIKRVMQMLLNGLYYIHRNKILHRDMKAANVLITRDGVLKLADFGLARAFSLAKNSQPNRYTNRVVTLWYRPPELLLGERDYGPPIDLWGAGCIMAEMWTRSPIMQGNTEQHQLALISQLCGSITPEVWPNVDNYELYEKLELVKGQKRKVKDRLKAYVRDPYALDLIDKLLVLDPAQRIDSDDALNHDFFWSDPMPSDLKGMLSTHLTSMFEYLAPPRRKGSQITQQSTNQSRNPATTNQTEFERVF
Sequence of CDK9/Cyclin T1 (O60563 whole entry partner): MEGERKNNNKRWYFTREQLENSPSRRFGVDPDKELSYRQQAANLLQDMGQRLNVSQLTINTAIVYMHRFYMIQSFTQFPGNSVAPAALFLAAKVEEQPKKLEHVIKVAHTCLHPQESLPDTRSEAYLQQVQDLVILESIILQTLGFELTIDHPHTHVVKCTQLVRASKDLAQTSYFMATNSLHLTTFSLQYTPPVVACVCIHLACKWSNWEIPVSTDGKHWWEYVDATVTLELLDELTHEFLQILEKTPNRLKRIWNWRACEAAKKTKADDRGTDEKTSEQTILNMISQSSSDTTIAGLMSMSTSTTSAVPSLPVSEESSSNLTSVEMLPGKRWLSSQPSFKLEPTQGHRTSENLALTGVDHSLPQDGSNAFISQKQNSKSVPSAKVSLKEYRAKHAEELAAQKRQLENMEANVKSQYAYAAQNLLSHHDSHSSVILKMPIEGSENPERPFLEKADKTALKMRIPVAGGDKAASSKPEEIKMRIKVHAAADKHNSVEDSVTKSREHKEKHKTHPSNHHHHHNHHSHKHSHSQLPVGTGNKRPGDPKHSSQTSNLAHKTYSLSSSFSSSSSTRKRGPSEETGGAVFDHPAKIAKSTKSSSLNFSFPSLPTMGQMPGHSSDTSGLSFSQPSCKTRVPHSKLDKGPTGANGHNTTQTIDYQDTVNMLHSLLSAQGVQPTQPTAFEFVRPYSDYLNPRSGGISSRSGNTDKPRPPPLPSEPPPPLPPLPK

Row | Structure (SMILES) | IC50 (H929 cells) | IC50 (CDK9/Cyclin T1)
1 | CN1Cc2c(C3=CCN(CC(=O)N4CC(CO)C4)CC3)[nH]c3ncc(F)c(c23)-c2cc(F)ccc21 [Example 74, 2-[4-(1,10-difluoro-7-methyl-6,7-dihydro-4H-3,4,7-triazadibenzo[cd,f]azulen-5-yl)-3,6-dihydropyridin-1(2H)-yl]-1-[3-(hydroxymethyl)azetidin-1-yl]ethanone] | 21 nM | 89 nM
2 | CN1Cc2c(C3=C[C@H]4CC[C@@H](C3)N4CC(=O)N3CCC[C@H]3CO)[nH]c3nccc(c23)-c2cc(F)ccc21 [Example 79, 2-[(1R,5S)-3-(10-fluoro-7-methyl-6,7-dihydro-4H-3,4,7-triazadibenzo[cd,f]azulen-5-yl)-8-azabicyclo[3.2.1]oct-2-en-8-yl]-1-[(2S)-2-(hydroxymethyl)pyrrolidin-1-yl]ethanone] | 49 nM | 72 nM
3 | CN1Cc2c(C3=C[C@H]4CC[C@@H](C3)N4CC(=O)N3CC(O)C3)[nH]c3nccc(c23)-c2cc(F)ccc21 [Example 80, 2-[(1R,5S)-3-(10-fluoro-7-methyl-6,7-dihydro-4H-3,4,7-triazadibenzo[cd,f]azulen-5-yl)-8-azabicyclo[3.2.1]oct-2-en-8-yl]-1-(3-hydroxyazetidin-1-yl)ethanone] | 190 nM | 97 nM
4 | CN1Cc2c(-c3ccc(CC(=O)O)cc3)[nH]c3nccc(c23)-c2cc(F)ccc21 [Example 81, [4-(10-fluoro-7-methyl-6,7-dihydro-4H-3,4,7-triazadibenzo[cd,f]azulen-5-yl)phenyl]acetic acid] | 790 nM | 68 nM
5 | CN(CC(O)CO)C(=O)CN1[C@H]2CC[C@@H]1C=C(c1[nH]c3nccc4c3c1CN(C)c1ccc(F)cc1-4)C2 (stereo partly drawn) [Example 83, N-(2,3-dihydroxypropyl)-2-[(1R,5S)-3-(10-fluoro-7-methyl-6,7-dihydro-4H-3,4,7-triazadibenzo[cd,f]azulen-5-yl)-8-azabicyclo[3.2.1]oct-2-en-8-yl]-N-methylacetamide] | 140 nM | 140 nM
6 | CN1Cc2c(C3=CC4CN(CC(=O)N5CC(O)C5)CC4C3)[nH]c3nccc(c23)-c2cc(F)ccc21 (centres unmarked) [Example 84, 2-[5-(10-fluoro-7-methyl-6,7-dihydro-4H-3,4,7-triazadibenzo[cd,f]azulen-5-yl)-3,3a,4,6a-tetrahydrocyclopenta[c]pyrrol-2(1H)-yl]-1-(3-hydroxyazetidin-1-yl)ethanone] | 180 nM | 94 nM
7 | CN(CC(O)CO)C(=O)CN1CC2C=C(c3[nH]c4nccc5c4c3CN(C)c3ccc(F)cc3-5)CC2C1 (centres unmarked) [Example 85, N-(2,3-dihydroxypropyl)-2-[5-(10-fluoro-7-methyl-6,7-dihydro-4H-3,4,7-triazadibenzo[cd,f]azulen-5-yl)-3,3a,4,6a-tetrahydrocyclopenta[c]pyrrol-2(1H)-yl]-N-methylacetamide] | 250 nM | 99 nM
8 | CN1Cc2c(C3=CCCN(S(C)(=O)=O)CC3)[nH]c3nccc(c23)-c2cc(F)ccc21 [Example 89, 10-fluoro-7-methyl-5-[1-(methylsulfonyl)-2,3,6,7-tetrahydro-1H-azepin-4-yl]-6,7-dihydro-4H-3,4,7-triazadibenzo[cd,f]azulene] | 230 nM | 120 nM
9 | CN1Cc2c(C3=CCCN(CC(=O)O)CC3)[nH]c3nccc(c23)-c2cc(F)ccc21 [Example 90, [4-(10-fluoro-7-methyl-6,7-dihydro-4H-3,4,7-triazadibenzo[cd,f]azulen-5-yl)-2,3,6,7-tetrahydro-1H-azepin-1-yl]acetic acid] | 1900 nM | 170 nM
10 | CN1Cc2c(C3=CCNCC3(C)C)[nH]c3nccc(c23)-c2cc(F)ccc21 [Example 92, 5-(3,3-dimethyl-1,2,3,6-tetrahydropyridin-4-yl)-10-fluoro-7-methyl-6,7-dihydro-4H-3,4,7-triazadibenzo[cd,f]azulene] | 1200 nM | 420 nM
11 | CN1Cc2c(C3=CCCN(S(C)(=O)=O)C3)[nH]c3nccc(c23)-c2cc(F)ccc21 [Example 95, 10-fluoro-7-methyl-5-[1-(methylsulfonyl)-1,2,5,6-tetrahydropyridin-3-yl]-6,7-dihydro-4H-3,4,7-triazadibenzo[cd,f]azulene] | 1200 nM | 130 nM
12 | CNC(=O)N1CCC=C(c2[nH]c3nccc4c3c2CN(C)c2ccc(F)cc2-4)C1 [Example 96, 5-(10-fluoro-7-methyl-6,7-dihydro-4H-3,4,7-triazadibenzo[cd,f]azulen-5-yl)-N-methyl-3,6-dihydropyridine-1(2H)-carboxamide] | 680 nM | 180 nM
13 | CN1Cc2c(C3=C[C@H]4CC[C@@H](C3)N4CC(=O)N(C)C3CC(O)C3)[nH]c3nccc(c23)-c2cc(F)ccc21 (stereo partly drawn) [Example 98, 2-[(1R,5S)-3-(10-fluoro-7-methyl-6,7-dihydro-4H-3,4,7-triazadibenzo[cd,f]azulen-5-yl)-8-azabicyclo[3.2.1]oct-2-en-8-yl]-N-(3-hydroxycyclobutyl)-N-methylacetamide] | 150 nM | 73 nM

The remaining molecules from weak to strong by IC50 (H929 cells), led by results:

Row | IC50 (H929 cells) | IC50 (CDK9/Cyclin T1) | Structure (SMILES)
14 | 4700 nM | 100 nM | CN1Cc2c(-c3cccc(CC(=O)O)c3)[nH]c3nccc(c23)-c2cc(F)ccc21 [Example 82, [3-(10-fluoro-7-methyl-6,7-dihydro-4H-3,4,7-triazadibenzo[cd,f]azulen-5-yl)phenyl]acetic acid]
15 | 580 nM | 420 nM | CN(C)C(=O)CN1CCC=C(c2[nH]c3nccc4c3c2CN(C)c2ccc(F)cc2-4)C1 [Example 97, 2-[5-(10-fluoro-7-methyl-6,7-dihydro-4H-3,4,7-triazadibenzo[cd,f]azulen-5-yl)-3,6-dihydropyridin-1(2H)-yl]-N,N-dimethylacetamide]
16 | 220 nM | 180 nM | CN1Cc2c(C3=CCCN(CC(=O)N4CC(O)C4)CC3)[nH]c3nccc(c23)-c2cc(F)ccc21 [Example 91, 2-[4-(10-fluoro-7-methyl-6,7-dihydro-4H-3,4,7-triazadibenzo[cd,f]azulen-5-yl)-2,3,6,7-tetrahydro-1H-azepin-1-yl]-1-(3-hydroxyazetidin-1-yl)ethanone]
17 | 150 nM | 150 nM | CN(C)C(=O)CN1CCC=C(c2[nH]c3nccc4c3c2CN(C)c2ccc(F)cc2-4)CC1 [Example 88, 2-[4-(10-fluoro-7-methyl-6,7-dihydro-4H-3,4,7-triazadibenzo[cd,f]azulen-5-yl)-2,3,6,7-tetrahydro-1H-azepin-1-yl]-N,N-dimethylacetamide]
18 | 110 nM | 46 nM | CN1Cc2c(C3=CCCNC3)[nH]c3nccc(c23)-c2cc(F)ccc21 [Example 93, 10-fluoro-7-methyl-5-(1,2,5,6-tetrahydropyridin-3-yl)-6,7-dihydro-4H-3,4,7-triazadibenzo[cd,f]azulene]
19 | 100 nM | 90 nM | CN1Cc2c(C3=CCCNCC3)[nH]c3nccc(c23)-c2cc(F)ccc21 [Example 87, 10-fluoro-7-methyl-5-(2,3,6,7-tetrahydro-1H-azepin-4-yl)-6,7-dihydro-4H-3,4,7-triazadibenzo[cd,f]azulene]
20 | 94 nM | 43 nM | CN(CCO)C(=O)CN1CC2C=C(c3[nH]c4nccc5c4c3CN(C)c3ccc(F)cc3-5)CC2C1 (centres unmarked) [Example 86, 2-[5-(10-fluoro-7-methyl-6,7-dihydro-4H-3,4,7-triazadibenzo[cd,f]azulen-5-yl)-3,3a,4,6a-tetrahydrocyclopenta[c]pyrrol-2(1H)-yl]-N-(2-hydroxyethyl)-N-methylacetamide]
21 | 91 nM | 100 nM | CN1Cc2c(C3=CC4CN(CC(=O)N(C)C5CC(O)C5)CC4C3)[nH]c3nccc(c23)-c2cc(F)ccc21 (centres unmarked) [Example 94, 2-[5-(10-fluoro-7-methyl-6,7-dihydro-4H-3,4,7-triazadibenzo[cd,f]azulen-5-yl)-3,3a,4,6a-tetrahydrocyclopenta[c]pyrrol-2 (1H)-yl]-N-(3-hydroxycyclobutyl)-N-methylacetamide]
22 | 78 nM | 46 nM | CN(C)C(=O)CN1CC2C=C(c3[nH]c4nccc5c4c3CN(C)c3ccc(F)cc3-5)CC2C1 (centres unmarked) [Example 77, 2-[5-(10-fluoro-7-methyl-6,7-dihydro-4H-3,4,7-triazadibenzo[cd,f]azulen-5-yl)-3,3a,4,6a-tetrahydrocyclopenta[c]pyrrol-2(1H)-yl]-N,N-dimethylacetamide]
23 | 30 nM | 62 nM | CN1Cc2c(C3=CC4CN(S(C)(=O)=O)CC4C3)[nH]c3nccc(c23)-c2cc(F)ccc21 (centres unmarked) [Example 78, 10-fluoro-7-methyl-5-[2-(methylsulfonyl)-1,2,3,3a,4,6a-hexahydrocyclopenta[c]pyrrol-5-yl]-6,7-dihydro-4H-3,4,7-triazadibenzo[cd,f]azulene]
24 | 22 nM | 41 nM | CNC(=O)N1CC2C=C(c3[nH]c4nccc5c4c3CN(C)c3ccc(F)cc3-5)CC2C1 (centres unmarked) [Example 76, 5-(10-fluoro-7-methyl-6,7-dihydro-4H-3,4,7-triazadibenzo[cd,f]azulen-5-yl)-N-methyl-3,3a,4,6a-tetrahydrocyclopenta[c]pyrrole-2(1H)-carboxamide]
25 | 8 nM | 51 nM | CN1Cc2c(C3=CCN(CC(=O)N4CCC[C@@H]4CO)CC3)[nH]c3ncc(F)c(c23)-c2cc(F)ccc21 [Example 75, 2-[4-(1,10-difluoro-7-methyl-6,7-dihydro-4H-3,4,7-triazadibenzo[cd,f]azulen-5-yl)-3,6-dihydropyridin-1(2H)-yl]-1-[(2R)-2-(hydroxymethyl)pyrrolidin-1-yl]ethanone]
